Experimental data as given in patent US20180099931A1 (AbbVie S.à.r.l., priority 2016, published 2018).
Like-named read-outs stand apart in the source and are kept apart here.

Target: T1, F508delCFTR (Homo sapiens, UniProt P13569, DEL508-508)
T1 construct: expressed in transfected cells; host or cells: CFBE41o- human lung-derived epithelial cells (CFBE4lo-F508delCFTR-HRP), doxycycline-inducible
Assay: Cell Surface Expression-Horse Radish Peroxidase (CSE-HRP) Assay;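 for Maximum % activity (with co-corrector): co-corrector and positive control are both the same reference corrector at 2 µM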;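 for Maximum % activity (without co-corrector): percent of the 2 µM on-plate positive control corrector response above DMSO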
Type: cell-based
Conditions: CSE-HRP; for Maximum % activity (with co-corrector): with co-corrector (2 μM); for Maximum % activity (with co-corrector) / Emax: maximum at any tested concentration, normalized to on-plate positive control; for Emax: without co-corrector, read-out: Maximum % activity (without co-corrector)

[1] = test compound without co-corrector, read-out: EC50 (without co-corrector)
[2] = with co-corrector (2 μM of 3-[(2R,4R)-4-({[1-(2,2-difluoro-1,3-benzodioxol-5-yl)cyclopropyl]carbonyl}amino)-7-methoxy-3,4-dihydro-2H-chromen-2-yl]benzoic acid), read-out: EC50 (with co-corrector)

T1 sequence (P13569 with tags, fused parts or gaps DEL508-508): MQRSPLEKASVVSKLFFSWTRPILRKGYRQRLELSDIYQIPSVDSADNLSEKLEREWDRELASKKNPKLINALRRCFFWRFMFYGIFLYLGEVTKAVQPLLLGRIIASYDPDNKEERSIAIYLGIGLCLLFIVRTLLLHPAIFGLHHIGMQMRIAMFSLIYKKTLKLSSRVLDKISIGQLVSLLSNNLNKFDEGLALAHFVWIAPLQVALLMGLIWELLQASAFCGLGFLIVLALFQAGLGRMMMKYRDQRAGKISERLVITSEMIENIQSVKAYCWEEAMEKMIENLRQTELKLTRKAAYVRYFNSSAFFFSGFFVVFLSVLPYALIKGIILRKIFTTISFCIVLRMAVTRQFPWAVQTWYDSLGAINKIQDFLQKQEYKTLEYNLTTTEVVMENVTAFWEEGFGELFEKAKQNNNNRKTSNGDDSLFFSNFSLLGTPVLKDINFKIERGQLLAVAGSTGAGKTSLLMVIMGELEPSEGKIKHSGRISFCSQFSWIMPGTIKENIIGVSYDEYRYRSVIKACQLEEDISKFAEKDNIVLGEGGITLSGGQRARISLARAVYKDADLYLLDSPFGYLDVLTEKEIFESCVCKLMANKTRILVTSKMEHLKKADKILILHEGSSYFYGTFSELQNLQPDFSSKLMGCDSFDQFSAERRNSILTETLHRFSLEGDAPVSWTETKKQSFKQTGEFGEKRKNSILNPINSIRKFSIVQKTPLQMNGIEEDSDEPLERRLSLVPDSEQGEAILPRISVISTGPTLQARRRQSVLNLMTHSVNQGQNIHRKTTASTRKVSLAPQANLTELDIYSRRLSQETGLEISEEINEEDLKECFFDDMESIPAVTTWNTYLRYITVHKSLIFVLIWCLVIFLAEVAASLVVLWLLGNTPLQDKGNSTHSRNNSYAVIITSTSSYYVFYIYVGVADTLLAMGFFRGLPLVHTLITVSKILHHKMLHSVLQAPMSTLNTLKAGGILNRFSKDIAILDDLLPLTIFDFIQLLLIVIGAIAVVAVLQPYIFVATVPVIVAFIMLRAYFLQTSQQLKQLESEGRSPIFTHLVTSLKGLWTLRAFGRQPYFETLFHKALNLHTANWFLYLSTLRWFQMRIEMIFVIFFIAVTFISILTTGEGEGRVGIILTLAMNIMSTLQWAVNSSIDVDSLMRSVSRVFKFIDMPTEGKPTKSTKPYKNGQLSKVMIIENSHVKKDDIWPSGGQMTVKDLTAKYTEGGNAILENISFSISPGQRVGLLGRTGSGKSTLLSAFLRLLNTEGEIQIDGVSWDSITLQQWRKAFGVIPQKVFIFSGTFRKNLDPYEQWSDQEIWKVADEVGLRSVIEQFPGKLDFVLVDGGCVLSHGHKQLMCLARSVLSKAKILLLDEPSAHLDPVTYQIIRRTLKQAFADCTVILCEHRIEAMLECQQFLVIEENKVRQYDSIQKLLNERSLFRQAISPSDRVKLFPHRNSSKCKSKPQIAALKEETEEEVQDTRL

Row | Structure (SMILES) | EC50 [1] [nM] | EC50 [2] [nM] | Maximum % activity (with co-corrector) | Emax [%]
1 | COc1ccc(C(C)(C)C)cc1CN[C@H]1[C@H](C(C)(C)C)[C@@H](C(=O)O)N(C(=O)c2cc(Cl)c(=O)n(C(C)C)c2)[C@H]1c1ccccc1 [II-223] | 1000 to 10000 | 1000 to 10000 | +++ (≥350) | < 100
2 | COc1ccc(C(C)(C)C)cc1CN[C@H]1[C@H](C(C)(C)C)[C@@H](C(=O)O)N(C(=O)c2ccc(Oc3ccccn3)cc2)[C@H]1c1ccccc1 [II-224] | 1000 to 10000 | < 1000 | +++ (≥350) | > 200
3 | COc1ccc(C(C)(C)C)cc1CN[C@H]1[C@H](C(C)(C)C)[C@@H](C(=O)O)N(C(=O)c2cccc(Cn3cncn3)c2)[C@H]1c1ccccc1 [II-225] | 1000 to 10000 | 1000 to 10000 | +++ (≥350) | 100 to 200
4 | COc1ccc(C(C)(C)C)cc1CN[C@H]1[C@H](C(C)(C)C)[C@@H](C(=O)O)N(C(=O)c2cc(-c3ccccc3)nn2C)[C@H]1c1ccccc1 [II-226] | < 1000 | < 1000 | +++ (≥350) | 100 to 200
5 | COc1ccc(C(C)(C)C)cc1CN[C@H]1[C@H](C(C)(C)C)[C@@H](C(=O)O)N(C(=O)c2cc(-c3ccccc3)n(C)n2)[C@H]1c1ccccc1 [II-227] | 1000 to 10000 | < 1000 | +++ (≥350) | > 200
6 | COc1ccc(C(C)(C)C)cc1CN[C@H]1[C@H](C(C)(C)C)[C@@H](C(=O)O)N(C(=O)c2cnn(-c3ccccc3C)c2C)[C@H]1c1ccccc1 [II-228] | < 1000 | < 1000 | +++ (≥350) | > 200
7 | COc1ccc(C(C)(C)C)cc1CN[C@H]1[C@H](C(C)(C)C)[C@@H](C(=O)O)N(C(=O)c2c(C)nn(-c3ccccc3)c2C)[C@H]1c1ccccc1 [II-229] | 1000 to 10000 | 1000 to 10000 | +++ (≥350) | > 200
8 | COc1ccc(C(C)(C)C)cc1CN[C@H]1[C@H](C(C)(C)C)[C@@H](C(=O)O)N(C(=O)c2ccc3c(c2)OCCCO3)[C@H]1c1ccccc1 [II-230] | 1000 to 10000 | 1000 to 10000 | +++ (≥350) | 100 to 200
9 | COc1ccc(C(C)(C)C)cc1CN[C@H]1[C@H](C(C)(C)C)[C@@H](C(=O)O)N(C(=O)c2onc3ccccc23)[C@H]1c1ccccc1 [II-231] | < 1000 | < 1000 | +++ (≥350) | 100 to 200
10 | COc1ccc(C(C)(C)C)cc1CN[C@H]1[C@H](C(C)(C)C)[C@@H](C(=O)O)N(C(=O)C2COc3ccccc3C2)[C@H]1c1ccccc1 (some centres unmarked) [II-232] | 1000 to 10000 | < 1000 | +++ (≥350) | 100 to 200
11 | COc1ccc(C(C)(C)C)cc1CN[C@H]1[C@H](C(C)(C)C)[C@@H](C(=O)O)N(C(=O)Cc2cccc(F)c2F)[C@H]1c1ccccc1 [II-233] | 1000 to 10000 | < 1000 | +++ (≥350) | > 200
12 | COc1ccc(C(C)(C)C)cc1CN[C@H]1[C@H](C(C)(C)C)[C@@H](C(=O)O)N(C(=O)CC2=CCCC2)[C@H]1c1ccccc1 [II-234] | 1000 to 10000 | 1000 to 10000 | +++ (≥350) | > 200
13 | COc1ccc(C(C)(C)C)cc1CN[C@H]1[C@H](C(C)(C)C)[C@@H](C(=O)O)N(C(=O)CC2CCCO2)[C@H]1c1ccccc1 (some centres unmarked) [II-235] | 1000 to 10000 | 1000 to 10000 | +++ (≥350) | > 200
14 | COc1ccc(C(C)(C)C)cc1CN[C@H]1[C@H](C(C)(C)C)[C@@H](C(=O)O)N(C(=O)Cc2ncc(Cl)cc2F)[C@H]1c1ccccc1 [II-236] | 1000 to 10000 | < 1000 | +++ (≥350) | > 200
15 | COc1ccc(C(C)(C)C)cc1CN[C@H]1[C@H](C(C)(C)C)[C@@H](C(=O)O)N(C(=O)C2CC(=O)N(C(C)C)C2)[C@H]1c1ccccc1 (some centres unmarked) [II-238] | 1000 to 10000 | 1000 to 10000 | +++ (≥350) | 100 to 200
16 | COc1ccc(C(C)(C)C)cc1CN[C@H]1[C@H](C(C)(C)C)[C@@H](C(=O)O)N(C(=O)C2CC(=O)N(C3CC3)C2)[C@H]1c1ccccc1 (some centres unmarked) [II-239] | 1000 to 10000 | 1000 to 10000 | +++ (≥350) | 100 to 200
17 | COc1ccc(C(C)(C)C)cc1CN[C@H]1[C@H](C(C)(C)C)[C@@H](C(=O)O)N(C(=O)Cc2cccc(C#N)c2)[C@H]1c1ccccc1 [II-240] | 1000 to 10000 | < 1000 | +++ (≥350) | > 200
18 | COc1cc(C(F)(F)F)ccc1CN[C@H]1[C@H](C(C)(C)C)[C@@H](C(=O)O)N(C(=O)C2OC[C@@H]3CCC[C@H]23)[C@H]1c1ccccc1 (some centres unmarked) [II-241] | 1000 to 10000 | 1000 to 10000 | +++ (≥350) | 100 to 200

Row | Structure (SMILES) | EC50 [1] [nM] | EC50 [2] [nM] | Maximum % activity (with co-corrector) | Emax [%]
19 | COCc1ccc(OC)c(CN[C@H]2[C@H](C(C)(C)C)[C@@H](C(=O)O)N(C(=O)C3CCCCC3)[C@H]2c2ccccc2)c1 [II-242] | 1000 to 10000 | 1000 to 10000 | +++ (≥350) | 100 to 200
20 | COc1nc2ccccc2cc1CN[C@H]1[C@H](C(C)(C)C)[C@@H](C(=O)O)N(C(=O)C2CCCCC2)[C@H]1c1ccccc1 [II-244] | 1000 to 10000 | < 1000 | +++ (≥350) | > 200
21 | COc1ccc(-c2ccccc2)cc1CN[C@H]1[C@H](C(C)(C)C)[C@@H](C(=O)O)N(C(=O)C2CCCCC2)[C@H]1c1ccccc1F [II-245] | < 1000 | < 1000 | +++ (≥350) | 100 to 200
22 | COc1ncc(N2CCCC2)cc1CN[C@H]1[C@H](C(C)(C)C)[C@@H](C(=O)O)N(C(=O)C2CCCCC2)[C@H]1c1ccccc1 [II-246] | 1000 to 10000 | 1000 to 10000 | +++ (≥350) | 100 to 200
23 | COc1ncc(Br)cc1CN[C@H]1[C@H](C(C)(C)OC)[C@@H](C(=O)O)N(C(=O)C2CCCCC2)[C@H]1c1ccccc1 [II-247] | 1000 to 10000 | < 1000 | +++ (≥350) | 100 to 200
24 | COc1ccc(-c2ccc(C)cc2)cc1CN[C@H]1[C@H](C(C)(C)C)[C@@H](C(=O)O)N(C(=O)C2CCCCC2)[C@H]1c1ccccc1 [II-249] | < 1000 | < 1000 | +++ (≥350) | > 200
25 | COc1ccc(-c2cccnc2OC)cc1CN[C@H]1[C@H](C(C)(C)C)[C@@H](C(=O)O)N(C(=O)C2CCCCC2)[C@H]1c1ccccc1 [II-250] | 1000 to 10000 | 1000 to 10000 | +++ (≥350) | 100 to 200
26 | COc1ncc(C2CC3CCC2C3)cc1CN[C@H]1[C@H](C(C)(C)OC)[C@@H](C(=O)O)N(C(=O)C2CCCCC2)[C@H]1c1ccccc1 (some centres unmarked) [II-251] | < 1000 | < 1000 | +++ (≥350) | 100 to 200
27 | COc1ncc(C2CCCCC2)cc1CN[C@H]1[C@H](C(C)(C)OC)[C@@H](C(=O)O)N(C(=O)C2CCCCC2)[C@H]1c1ccccc1 [II-252] | < 1000 | < 1000 | +++ (≥350) | > 200
28 | COc1ncc(CC2CCCCC2)cc1CN[C@H]1[C@H](C(C)(C)OC)[C@@H](C(=O)O)N(C(=O)C2CCCCC2)[C@H]1c1ccccc1 [II-253] | < 1000 | < 1000 | +++ (≥350) | 100 to 200
29 | COc1ncc(C(C)C)cc1CN[C@H]1[C@H](C(C)(C)OC)[C@@H](C(=O)O)N(C(=O)C2CCCCC2)[C@H]1c1ccccc1 [II-254] | 1000 to 10000 | 1000 to 10000 | +++ (≥350) | > 200
30 | COc1ccc(C2CCC2)cc1CN[C@H]1[C@H](C(C)(C)OC)[C@@H](C(=O)O)N(C(=O)C2CCCCC2)[C@H]1c1ccccc1 [II-255] | < 1000 | < 1000 | +++ (≥350) | > 200
31 | COc1ccc(C2CCCC2)cc1CN[C@H]1[C@H](C(C)(C)OC)[C@@H](C(=O)O)N(C(=O)C2CCCCC2)[C@H]1c1ccccc1 [II-256] | < 1000 | < 1000 | +++ (≥350) | > 200
32 | COc1ccc(C2CCCCC2)cc1CN[C@H]1[C@H](C(C)(C)OC)[C@@H](C(=O)O)N(C(=O)C2CCCCC2)[C@H]1c1ccccc1 [II-257] | < 1000 | < 1000 | +++ (≥350) | > 200
33 | COc1ccc(C(C)C)cc1CN[C@H]1[C@H](C(C)(C)OC)[C@@H](C(=O)O)N(C(=O)C2CCCCC2)[C@H]1c1ccccc1 [II-258] | 1000 to 10000 | < 1000 | +++ (≥350) | > 200
34 | COc1ncc(C2CC2)cc1CN[C@H]1[C@H](C(C)(C)C)[C@@H](C(=O)O)N(C(=O)C2CCCCC2)[C@H]1c1ccccc1 [II-259] | 1000 to 10000 | 1000 to 10000 | +++ (≥350) | 100 to 200
35 | COc1ccc(C(F)(F)F)cc1CN[C@H]1[C@H](C(C)(C)C)[C@@H](C(=O)O)N(C(=O)C2CCCCC2)[C@H]1c1ccccc1F [II-260] | 1000 to 10000 | 1000 to 10000 | +++ (≥350) | 100 to 200
